Source: the NIST ThermoML archive (doi:10.1021/je800017j)

Assay: xn = mol fraction of the nth substance listed
Conditions: Liquid, Vibrating tube method

C=CC [propene] + CC(C)O
Conditions | mass density [kg/m3]
300.11 K, 966.7 kPa, x1 = 0.5201 | 644.49
300.11 K, 1373.3 kPa, x1 = 0.5201 | 645.21
300.11 K, 1835.6 kPa, x1 = 0.5201 | 645.98
300.11 K, 2340.9 kPa, x1 = 0.5201 | 646.83
300.11 K, 2812.4 kPa, x1 = 0.5201 | 647.62
300.11 K, 3330.1 kPa, x1 = 0.5201 | 648.49
300.11 K, 3817.5 kPa, x1 = 0.5201 | 649.27
300.11 K, 4386.1 kPa, x1 = 0.5201 | 650.18
300.11 K, 4873.7 kPa, x1 = 0.5201 | 650.95
300.11 K, 5375.2 kPa, x1 = 0.5201 | 651.72
300.11 K, 5888.8 kPa, x1 = 0.5201 | 652.52
300.11 K, 6442 kPa, x1 = 0.5201 | 653.35
300.11 K, 6942.8 kPa, x1 = 0.5201 | 654.09
300.11 K, 7498.2 kPa, x1 = 0.5201 | 654.9
300.11 K, 8104.7 kPa, x1 = 0.5201 | 655.77
300.11 K, 8671.8 kPa, x1 = 0.5201 | 656.58
300.11 K, 9226.7 kPa, x1 = 0.5201 | 657.35
300.11 K, 9787 kPa, x1 = 0.5201 | 658.16
300.12 K, 1068.5 kPa, x1 = 0.6478 | 608.06
300.12 K, 1486.5 kPa, x1 = 0.6478 | 608.93
300.12 K, 1740.6 kPa, x1 = 0.6478 | 609.48
300.12 K, 2123.8 kPa, x1 = 0.6478 | 610.19
300.12 K, 2620 kPa, x1 = 0.6478 | 611.17
300.12 K, 2986.8 kPa, x1 = 0.6478 | 611.92
300.12 K, 3495.3 kPa, x1 = 0.6478 | 612.85
300.12 K, 3829 kPa, x1 = 0.6478 | 613.59
300.12 K, 4193.5 kPa, x1 = 0.6478 | 614.26
300.12 K, 4542.8 kPa, x1 = 0.6478 | 614.93
300.12 K, 4905.4 kPa, x1 = 0.6478 | 615.61
300.12 K, 5263.7 kPa, x1 = 0.6478 | 616.27
300.12 K, 5634.1 kPa, x1 = 0.6478 | 616.94
300.12 K, 6011.3 kPa, x1 = 0.6478 | 617.61
300.12 K, 6395.3 kPa, x1 = 0.6478 | 618.28
300.12 K, 6788.6 kPa, x1 = 0.6478 | 618.96
300.12 K, 7165.4 kPa, x1 = 0.6478 | 619.61
300.12 K, 7558.1 kPa, x1 = 0.6478 | 620.28
300.12 K, 7960.1 kPa, x1 = 0.6478 | 620.96
300.12 K, 8377.2 kPa, x1 = 0.6478 | 621.66
300.12 K, 8785.5 kPa, x1 = 0.6478 | 622.34
300.12 K, 9234.2 kPa, x1 = 0.6478 | 623.05
300.12 K, 9682.1 kPa, x1 = 0.6478 | 623.79
300.14 K, 529.4 kPa, x1 = 0.2011 | 731.63
300.14 K, 1051.3 kPa, x1 = 0.2011 | 732.17
300.14 K, 1483.6 kPa, x1 = 0.2011 | 732.72
300.14 K, 1954.4 kPa, x1 = 0.2011 | 733.24
300.14 K, 2384 kPa, x1 = 0.2011 | 733.72
300.14 K, 2798.6 kPa, x1 = 0.2011 | 734.18
300.14 K, 3273.1 kPa, x1 = 0.2011 | 734.68
300.14 K, 3740.2 kPa, x1 = 0.2011 | 735.18
300.14 K, 4186.3 kPa, x1 = 0.2011 | 735.68
300.14 K, 4728.6 kPa, x1 = 0.2011 | 736.23
300.14 K, 5235.6 kPa, x1 = 0.2011 | 736.78
300.14 K, 5767.3 kPa, x1 = 0.2011 | 737.3
300.14 K, 6274.7 kPa, x1 = 0.2011 | 737.83
300.14 K, 6832.5 kPa, x1 = 0.2011 | 738.41
300.14 K, 7291.5 kPa, x1 = 0.2011 | 738.89
300.14 K, 7811.8 kPa, x1 = 0.2011 | 739.42
300.14 K, 8296.6 kPa, x1 = 0.2011 | 739.9
300.14 K, 8810.3 kPa, x1 = 0.2011 | 740.41
300.14 K, 9337.7 kPa, x1 = 0.2011 | 740.91
300.14 K, 9886.4 kPa, x1 = 0.2011 | 741.45
325.05 K, 1613.1 kPa, x1 = 0.5201 | 613.41
325.05 K, 1977.7 kPa, x1 = 0.5201 | 614.26
325.05 K, 2359 kPa, x1 = 0.5201 | 615.15
325.05 K, 2717.2 kPa, x1 = 0.5201 | 615.98
325.05 K, 3167.8 kPa, x1 = 0.5201 | 616.93
325.05 K, 3506.1 kPa, x1 = 0.5201 | 617.74
325.05 K, 3888.8 kPa, x1 = 0.5201 | 618.59
325.05 K, 4321.6 kPa, x1 = 0.5201 | 619.52
325.05 K, 4676.7 kPa, x1 = 0.5201 | 620.29
325.05 K, 5061.4 kPa, x1 = 0.5201 | 621.12
325.05 K, 5471.8 kPa, x1 = 0.5201 | 621.94
325.05 K, 5880.1 kPa, x1 = 0.5201 | 622.78
325.05 K, 6293.6 kPa, x1 = 0.5201 | 623.65
325.05 K, 6704.3 kPa, x1 = 0.5201 | 624.42
325.05 K, 7171.7 kPa, x1 = 0.5201 | 625.34
325.05 K, 7597.4 kPa, x1 = 0.5201 | 626.18
325.05 K, 8037.5 kPa, x1 = 0.5201 | 627.02
325.05 K, 8556.5 kPa, x1 = 0.5201 | 628.02
325.05 K, 9078.1 kPa, x1 = 0.5201 | 628.97
325.05 K, 9631.3 kPa, x1 = 0.5201 | 629.98
325.09 K, 810.9 kPa, x1 = 0.2011 | 703.07
325.09 K, 1218.9 kPa, x1 = 0.2011 | 703.59
325.09 K, 1608.7 kPa, x1 = 0.2011 | 704.14
325.09 K, 2001.8 kPa, x1 = 0.2011 | 704.7
325.09 K, 2383.7 kPa, x1 = 0.2011 | 705.3
325.09 K, 2827.6 kPa, x1 = 0.2011 | 705.86
325.09 K, 3159.2 kPa, x1 = 0.2011 | 706.38
325.09 K, 3707.9 kPa, x1 = 0.2011 | 707.07
325.09 K, 4123.6 kPa, x1 = 0.2011 | 707.68
325.09 K, 4528.5 kPa, x1 = 0.2011 | 708.19
325.09 K, 4925.3 kPa, x1 = 0.2011 | 708.73

Conditions | mass density [kg/m3]
300.11 K, x1 = 0.5201 | 644.42
300.12 K, x1 = 0.6478 | 607.97
300.14 K, x1 = 0.2011 | 731.63
325.05 K, x1 = 0.5201 | 613.29
